Experimental findings from ChEMBL document CHEMBL1201862, “PubChem BioAssay data set” (2004) are described below.

Among the test systems are NCI-H522; SF-295; DU-145; Malme-3M; BT-549; IGROV-1; TK-10; SK-MEL-28; HOP-92; SNB-75; OVCAR-3; T47D; HCT-15; NCI-H23; HOP-62; RPMI-8226; RXF 393; Hs-578T; SK-MEL-5; SF-539.
Holding throughout (assay): NCI-60 cell line screen, 48 h

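In this assay, cells in 96-well plates receive the compound at five concentrations for 48 hours. Endpoints are linearly interpolated between the surrounding concentrations. Abbreviation: GI50, concentration required for 50% inhibition of growth.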 Active and inactive are the calls of the source. Cut-off read from the data, not from the text of the source: active = GI50 up to about 1.1 µM and inactive = higher. Where only a bound is given, the exact number is not on record here.

On to `CCC(=O)Nc1ncnc2ncn(C(=O)CC)c12`, for which the GI50 with NCI-H522, in the test on SF-295, in the test on DU-145, in the test on Malme-3M, in the test on BT-549 and in the test with IGROV-1 was > 100 µM (inactive) in each case. In addition, the GI50 in the test with TK-10, in the test with SK-MEL-28, in the test on HOP-92, in the test on SNB-75, in the test on OVCAR-3 and in the test on T47D was > 100 µM (inactive) in each case. The GI50 in the test with HCT-15 is greater than 100 µM; in the test with NCI-H23, > 100 µM (inactive); with HOP-62, > 100 µM (inactive); in the test on RPMI-8226, > 100 µM (inactive); in the test with RXF 393, > 100 µM (inactive); in the test on Hs-578T, > 100 µM (inactive).

With `CC(C)(C)c1cc(C(C)(C)C)c2sc(=O)oc2c1O`, the GI50 with NCI-H522 is 13.7 µM (inactive); in the test with SK-MEL-5, 14.4 µM (inactive); in the test on SF-295 it was 11.4 µM (inactive); in the test with DU-145, 17.1 µM (inactive); in the test on Malme-3M, 16.5 µM (inactive); in the test with BT-549, 18.7 µM (inactive). The GI50 in the test with IGROV-1 was 14.2 µM (inactive); in the test on TK-10 it was 11.8 µM (inactive); in the test on SK-MEL-28, 16.3 µM (inactive); in the test with HOP-92 it was 16.8 µM (inactive); in the test on SNB-75, 13.7 µM (inactive); in the test with OVCAR-3, 11.8 µM (inactive). Also, the GI50 in the test on T47D was 6.14 µM (inactive); with HCT-15, 12.4 µM; with HOP-62, 17 µM (inactive); in the test with SF-539 it was 16.1 µM (inactive); in the test on RPMI-8226 it was 21.3 µM (inactive); in the test with RXF 393, 11.9 µM (inactive). Also, the GI50 with Hs-578T was 16.4 µM (inactive).

Consider `OC(c1ccco1)C(F)(F)c1nc2ccccc2o1` (configuration not stated), for which the GI50 in the test with SK-MEL-5 was > 100 µM (inactive); with SF-295 it was 56.8 µM (inactive); in the test with DU-145, > 100 µM (inactive); with BT-549 it was > 100 µM (inactive); in the test on IGROV-1, > 100 µM (inactive); with TK-10, > 100 µM (inactive). The GI50 is > 100 µM (inactive) in the test with SK-MEL-28; > 100 µM (inactive) in the test with HOP-92; > 100 µM (inactive) in the test on SNB-75; 61.5 µM (inactive) with T47D; greater than 100 µM with HCT-15; > 100 µM (inactive) in the test with NCI-H23. In addition, the GI50 in the test on HOP-62, with SF-539, in the test on RPMI-8226, in the test with RXF 393 and with Hs-578T was > 100 µM (inactive) each time.

On to `COc1ccc(C2SCC(=O)N2NC(=O)C(C)Oc2ccccc2Cl)cc1` (configuration not stated), for which the GI50 in the test on NCI-H522 is 51.9 µM (inactive); in the test on SK-MEL-5, 24.5 µM (inactive); in the test on SF-295, 45 µM (inactive); in the test with DU-145, 94.8 µM (inactive); in the test with BT-549, 85.7 µM (inactive); in the test on IGROV-1 it was 56.2 µM (inactive). Besides, the GI50 was 63.2 µM (inactive) with TK-10; > 100 µM (inactive) with SK-MEL-28; 23.7 µM (inactive) in the test on HOP-92; 56.6 µM (inactive) in the test with SNB-75; 27.2 µM (inactive) in the test on T47D; 49.8 µM with HCT-15. Moreover, the GI50 in the test with NCI-H23 is 67.8 µM (inactive); in the test with SF-539, > 100 µM (inactive); in the test with RPMI-8226, 32.4 µM (inactive); with RXF 393, 27.7 µM (inactive); with Hs-578T, > 100 µM (inactive).

As for `O=C1c2ccccc2C(=O)c2c(NCCNC(=O)C3CCCN3)ccc(NCCNC(=O)C3CCCN3)c21` (configuration not stated), the GI50 is 19.9 µM (inactive) with NCI-H522; 88.5 µM (inactive) in the test on SK-MEL-5; > 100 µM (inactive) in the test on SF-295; 70.1 µM (inactive) in the test with DU-145; 95.9 µM (inactive) in the test with Malme-3M; 29.9 µM (inactive) with BT-549. The GI50 with IGROV-1 was 62.7 µM (inactive); with TK-10 it was > 100 µM (inactive); in the test on SK-MEL-28 it was 41.7 µM (inactive); in the test with HOP-92, 41 µM (inactive); in the test on SNB-75 it was 53.3 µM (inactive); in the test on OVCAR-3, 69.8 µM (inactive). Besides, the GI50 in the test with T47D is 30 µM (inactive); with HCT-15, greater than 100 µM; in the test with NCI-H23, 52.8 µM (inactive); with HOP-62 it was 45 µM (inactive); in the test with SF-539, 44.6 µM (inactive); with RPMI-8226, 22.6 µM (inactive). Also, the GI50 in the test with Hs-578T was 37.1 µM (inactive).

As to `O=P1(Oc2ccc(Cl)cc2)OCCS1` (configuration not stated), the GI50 in the test with NCI-H522, in the test with SK-MEL-5, in the test on SF-295, in the test on DU-145, with Malme-3M and in the test on BT-549 was > 100 µM (inactive) in each case. The GI50 in the test with IGROV-1, with TK-10, with SK-MEL-28, with HOP-92, in the test on SNB-75 and in the test with T47D was > 100 µM (inactive) in each case. The GI50 in the test on HCT-15 was greater than 100 µM; with NCI-H23 it was > 100 µM (inactive); with HOP-62 it was > 100 µM (inactive); with SF-539 it was > 100 µM (inactive); in the test on RPMI-8226, > 100 µM (inactive); with RXF 393, > 100 µM (inactive). In addition, the GI50 in the test on Hs-578T was > 100 µM (inactive).

For `CN(C)C(=S)N/N=C\C(=N/NC(=S)N(C)C)c1ccccc1`, the GI50 is 3.15 µM (inactive) with NCI-H522; 9.84 µM (inactive) in the test on SK-MEL-5; 4.93 µM (inactive) in the test on SF-295; 4.23 µM (inactive) in the test with DU-145; > 22.2 µM (inactive) in the test with BT-549; 3.7 µM (inactive) with IGROV-1. The GI50 in the test with TK-10 is 6.87 µM (inactive); in the test with SK-MEL-28, 7.16 µM (inactive); with HOP-92, 3.91 µM (inactive); in the test on SNB-75, 13.4 µM (inactive); with OVCAR-3 it was 2.7 µM (inactive); in the test with T47D, 1.28 µM (inactive). In addition, the GI50 in the test on HCT-15 is 2.71 µM; in the test on NCI-H23, 9.46 µM (inactive); in the test with HOP-62, 6.05 µM (inactive); in the test with SF-539, 10.1 µM (inactive); in the test on RPMI-8226, 4.68 µM (inactive); in the test on RXF 393, 7.36 µM (inactive). For the same compound, the GI50 with Hs-578T was 4.57 µM (inactive).

For the compound `Cc1cccc(C)c1NC(=O)C(=O)CC(=O)c1sc(Nc2c(C)cccc2C)nc1C`, the GI50 in the test with NCI-H522, in the test with SF-295, with DU-145, with BT-549, with IGROV-1 and in the test on TK-10 was > 100 µM (inactive) throughout. In addition, the GI50 is > 100 µM (inactive) in the test on HOP-92; 22.7 µM (inactive) with SNB-75; > 100 µM (inactive) with OVCAR-3; > 100 µM (inactive) in the test with T47D; greater than 100 µM in the test with HCT-15; > 100 µM (inactive) with NCI-H23. In addition, the GI50 is > 100 µM (inactive) in the test on HOP-62; > 100 µM (inactive) with SF-539; > 100 µM (inactive) in the test with RPMI-8226; 61.1 µM (inactive) in the test with RXF 393; > 100 µM (inactive) with Hs-578T.

With `O=C(O)C1OC1C(=O)O` (configuration not stated), the GI50 with NCI-H522, with SK-MEL-5, in the test with SF-295, in the test on DU-145, in the test on Malme-3M and in the test on BT-549 was > 100 µM (inactive) throughout. Moreover, the GI50 in the test with IGROV-1, with TK-10, in the test on SK-MEL-28, with HOP-92, in the test with SNB-75 and with OVCAR-3 was > 100 µM (inactive) each time. In addition, the GI50 in the test with T47D is > 100 µM (inactive); in the test with HCT-15 it was greater than 100 µM; with NCI-H23, > 100 µM (inactive); with HOP-62, > 100 µM (inactive); with RPMI-8226 it was > 100 µM (inactive); in the test on RXF 393, > 100 µM (inactive). Besides, in the test with Hs-578T, the GI50 was > 100 µM (inactive).

For the compound `C/C=C/C1OC(O)(C(C)C(O)[C@H](C)C2OC(=O)/C(OC)=C/C(C)=C/[C@@H](C)[C@@H](O)[C@@H](C)C(O)C(C)C/C(C)=C/C=C/C2OC)C[C@@H](OC2CC(O)C(OC(N)=O)C(C)O2)C1C` (some centres not stated), the GI50 with NCI-H522, in the test on SK-MEL-5, in the test with SF-295, in the test with DU-145, in the test with Malme-3M and in the test with BT-549 was < 0.01 µM (active) in each case. The GI50 in the test with IGROV-1 was < 0.01 µM (active); in the test on TK-10, < 0.01 µM (active); in the test on SK-MEL-28, 1.45 µM (inactive); in the test on HOP-92, < 0.01 µM (active); in the test on SNB-75 it was < 0.01 µM (active); in the test with OVCAR-3, < 0.0182 µM (active). The GI50 was < 0.01 µM (active) in the test with T47D; less than 0.01 µM in the test on HCT-15; < 0.01 µM (active) in the test with NCI-H23; < 0.01 µM (active) in the test on HOP-62; < 0.01 µM (active) in the test with SF-539; < 0.01 µM (active) in the test on RPMI-8226. Moreover, in the test on Hs-578T, the GI50 is 0.889 µM (active).

In the case of `Nc1nc(Cl)cc(Nc2cc(Cl)cc(Cl)c2)n1`, the GI50 was 10.9 µM (inactive) with NCI-H522; 19.8 µM (inactive) with SK-MEL-5; 21.1 µM (inactive) in the test with SF-295; 26.1 µM (inactive) in the test with DU-145; 22.3 µM (inactive) in the test with Malme-3M; 22.1 µM (inactive) with BT-549. Also, the GI50 was 18.7 µM (inactive) in the test on IGROV-1; 20.4 µM (inactive) in the test on TK-10; 21.5 µM (inactive) in the test on HOP-92; 21.7 µM (inactive) with SNB-75; 22.8 µM (inactive) with OVCAR-3; 37 µM (inactive) in the test on T47D. The GI50 was 20.7 µM with HCT-15; 23.1 µM (inactive) in the test with NCI-H23; 29.2 µM (inactive) in the test with HOP-62; 17 µM (inactive) in the test with SF-539; 33 µM (inactive) in the test on RPMI-8226; 21.1 µM (inactive) with RXF 393. Further, the GI50 in the test on Hs-578T was 16.8 µM (inactive).
